Patent US5512573A, “Use of phthaloylhydrazide derivatives as anti-hypoxic and defensive agents” (priority 1993, dated 1996)
Where a name gives a salt, the structure may show the parent alone.

Columns and labels:
[1] = Summary of experiments on phthaloylhydrazide derivatives; type: in vivo; conditions: for pharmacological activity, anti-hypoxic and defensive action: doses of 10 to 300 mg/kg
[2] = tested on: myocardial ischemia in rats; assay: Example 3: myocardial ischemia with restored circulation in rats; type: in vivo
Protocol: Experiments were performed on 60 previously prepared rats. Thirty days before the start of the main experiment, a part of the coronary artery was tied off.
Next, after having supplied light anesthesia, we created by means of the obstruction of the vessel a massive hearth of myocardial ischemia.
We administered the sodium salt intravenously in doses of 30, 100, 200 and 250 mg per kilogram of body weight, immediately after having released the tie. In the control group, the rats were administered a physiological solution, while the test group was given the antioxidant Dibunolo (20% oily solution in a dose of 30 mg/kg).

[3] = tested on: brain ischemia (carotid tying) in mice; assay: Example 4: carotid tying and release in mice; type: in vivo; conditions: control mortality 50%
Protocol: We performed experiments on 50 mice of the pyramid by tying the carotid under light anesthesia. After 7 minutes, we released the tie and restored the blood circulation in the ischemic area.

[4] = tested on: Sprague-Dawley rats; conditions: use to decrease serum cholesterol levels; cited from earlier work
[5] = tested on: ethane and pentane contents of the air inhaled by the animals; conditions: change in ethane and pentane contents
[6] = tested on: hypoxia
[7] = tested on: leukocytes; conditions: in vivo
[8] = tested on: hypoxia in mice; assay: Example 1: resistance of mice to hypoxia (altitude of 10,400 meters); type: in vivo; conditions: control 41±2.5, sodium salt at 60 to 80 mg/kg
Protocol: We assessed the pharmacological activity on the basis of the resistance of the animals to hypoxia. […] We administered the drug intravenously in doses of 10 to 300 mg, in 0.1 ml of physiological solution. In some cases, because of poor solubility, we injected the derivatives in the form of suspensions. The control animals received 0.1 ml of physiological solution.

[9] = tested on: leukocytes in ischemic tissue; surviving animals
[10] = morphological analysis, test group

## 4,5-amino-2,3- dihydrophthalazine-1,2 dione [4,5-aminophthaloylhydrazide]
[1]
  pharmacological activity, anti-hypoxic and defensive action: possess a pronounced pharmacological activity

## 4-methyl-4,5-diamino-2,3 dihydrophthalazine-1,2 dione
[1]
  pharmacological activity, anti-hypoxic and defensive action: possess a pronounced pharmacological activity

## Nc1ccc2c(=O)[nH][nH]c(=O)c2c1 [4-aminophthaloylhydrazide]
[1]; in vivo
  therapeutic effects: major therapeutic effects

## Cc1cc(C(C)(C)C)c(O)c(C(C)(C)C)c1 [Dibunolo, reference compound]
[2]; Dibunolo 20% oily solution, 30 mg/kg, p>0.05
  survival rate: tendency toward rising survival rates of the animals, but the results obtained were not reliable
[3]
  prevention of mortality: not entirely prevented

## O=c1[nH][nH]c(=O)c2ccccc12 [Phthaloylhydrazide, 2,3 dihydrophthalazine-1,4 dione]
[4]
  toxicity: certain signs of toxicity
[1]
  pharmacological activity, anti-hypoxic and defensive action: possess a pronounced pharmacological activity

## N[C@@H](Cc1c[nH]cn1)C(=O)O [histidine, reference compound]
[3]
  prevention of mortality: not entirely prevented

## Nc1cccc2c(=O)[nH][nH]c(=O)c12 [sodium salt of 5-aminophthaloylhydrazide, sodium salt of 5-amino-2,3-dihydrophthalazine-1,2 dione]
[2]; 30 mg/kg i.v.
  signs of a therapeutic effect: clear signs of a therapeutic effect
[2]; 30 mg/kg i.v., p>0.05
  prevention of death: did not prevent the death of the animals
[2]; 100 mg/kg and beyond, i.v., p<0.01-0.001
  number of surviving animals: increase in the number of surviving animals
[2]; [10]
  damaged area of myocardium: the damaged area could not be perceived visually
  necrotic hearths in myocardium: The tiny necrotic hearths were few and diffused
[5]
  antioxidant action in vivo: antioxidant action in vivo
[6]; 60 to 80 mg
  anti-hypoxic activity vs antioxidants (Dibunolo, histidine, Organeia, etc.): exceeds that of antioxidants used thus far in medical practice
[6]; beyond 100 mg/kg
  anti-hypoxic effect on further dose increase: the effect does not basically increase
[7]
  adhesion capacity of the leukocytes: drop in the adhesion capacity of the leukocytes
[8]
  life span of the animals: 222 ± 45 s
[9]; experimental group, intravenous, p<0.01
  percentage of surviving animals: 80%
[9]; one time i.v. 150 to 250 mg/kg
  increase of leukocyte levels in the blood: 2.5 times
[9]; one time i.v. 150 to 250 mg/kg, after 6 hours
  previously penetrated leukocytes eliminated: 75%

## dimethyldiaminophthaloylhydrazide
[8]
  life span of the animals: 89 ± 12 s
